Data: patent US9205161B2, “Disinfecting composition comprising a chloramine bleaching agent for removable dental appliances” (LMA Solutions, Inc., priority 2014, dated 2015)

Test system: BL21 E. coli cells
Assay: Bacterial kill after contact in LB broth, plating on LB agar
Assay type: cell-based
Settings: 15 min exposure at 37° C.; for % Reduction Product / CFU/ml Product / Log reduction Product: MES 25 μM, NaDCC 0.9 mg/ml
Protocol: A working suspension of BL21 E. coli cells in LB broth (1.16×10^8 CFU/ml) was contacted for 15 min at 37° C. with either 1×PBS buffer (control), 2-(N-morpholino)ethanesulfonic acid (“MES”) (final conc. of 25 μM or 0.0049 mg/ml), Sodium Dichloroisocyanurate (“NaDCC”) (final conc. of 0.9 mg/ml), or MES (final conc. of 25 μM or 0.0049 mg/ml)+NaDCC (final conc. of 0.9 mg/ml). Lysogeny broth (LB), a nutritionally rich medium, is primarily used for the growth of bacteria.
After contact, ten-fold serial dilutions from 1:10 to 1:10^6 were prepared using D/E neutralizing broth and an aliquot at each dilution (100 μl) was plated onto an LB agar plate and incubated for 20 hours at 37° C.
The plate shown in FIG. 1A corresponds to treatments with MES-only at a plating dilution of 1:1×10^4. The plate shown in FIG. 1B corresponds to treatments with NaDCC-only at a plating dilution of 1:10. The plate shown FIG. 1C corresponds to treatment with MES+NaDCC at plating dilution of 1:10.

O=S(=O)(O)CCN1CCOCC1 [MES only, 2-(N-morpholino)ethanesulfonic acid]
Plate count (CFU) (plate dilution 1:1.0E+05, 100 ul plated): 128 CFU
% Reduction Product: −10.3448%
CFU/ml Product: 1.28E+08 CFU/ml
Log reduction Product: −0.04

O=c1nc([O-])n(Cl)c(=O)n1Cl.[Na+] [NaDCC only, Sodium Dichloroisocyanurate]
Plate count (CFU) (plate dilution 1:1.0E+01, 100 ul plated): 331 CFU
% Reduction Product: 99.9715%
CFU/ml Product: 3.31E+04 CFU/ml
Log reduction Product: 3.54
